Source: PubChem BioAssay (NCI)
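Exposure lasted 48 hours, with cells grown in 96-well plates and compounds tested at five concentrations. GI50: concentration for 50% inhibition of growth. TGI is the concentration that stops growth completely.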

Experiments:
Test in all cases: NCI-60 cell line screen, 48 h
M14 melanoma = system: M14 melanoma
DU-145 prostate = system: DU-145 prostate
RPMI-8226 leukemia = system: RPMI-8226 leukemia
CAKI-1 renal = system: CAKI-1 renal
NCI/ADR-RES ovarian = system: NCI/ADR-RES ovarian
HCT-15 colon = system: HCT-15 colon
SF-539 CNS = system: SF-539 CNS
COLO 205 colon = system: COLO 205 colon
HCT-116 colon = system: HCT-116 colon
NCI-H23 lung = system: NCI-H23 lung
786-0 renal = system: 786-0 renal
MCF7 breast = system: MCF7 breast
KM12 colon = system: KM12 colon
UACC-62 melanoma = system: UACC-62 melanoma
MDA-MB-231 breast = system: MDA-MB-231 breast
SK-MEL-5 melanoma = system: SK-MEL-5 melanoma
LOX IMVI melanoma = system: LOX IMVI melanoma
SK-MEL-2 melanoma = system: SK-MEL-2 melanoma
HCC-2998 colon = system: HCC-2998 colon
OVCAR-3 ovarian = system: OVCAR-3 ovarian
HT29 colon = system: HT29 colon
HOP-62 NSCLC = system: HOP-62 NSCLC
IGROV1 ovarian = system: IGROV1 ovarian
UACC-257 melanoma = system: UACC-257 melanoma
UO-31 renal = system: UO-31 renal
PC-3 prostate = system: PC-3 prostate
BT-549 breast = system: BT-549 breast
OVCAR-5 ovarian = system: OVCAR-5 ovarian
SN12C renal = system: SN12C renal
NCI-H226 lung = system: NCI-H226 lung
K-562 leukemia = system: K-562 leukemia
MDA-MB-435 = system: MDA-MB-435
RXF 393 renal = system: RXF 393 renal
SNB-75 CNS = system: SNB-75 CNS
TK-10 renal = system: TK-10 renal
CCRF-CEM leukemia = system: CCRF-CEM leukemia
SR leukemia = system: SR leukemia
A549 NSCLC = system: A549 NSCLC
MALME-3M melanoma = system: MALME-3M melanoma
NCI-H460 lung = system: NCI-H460 lung
NCI-H522 lung = system: NCI-H522 lung
SW-620 colon = system: SW-620 colon
ACHN renal = system: ACHN renal
SK-MEL-28 melanoma = system: SK-MEL-28 melanoma
SF-295 CNS = system: SF-295 CNS
SK-OV-3 ovarian = system: SK-OV-3 ovarian
OVCAR-8 ovarian = system: OVCAR-8 ovarian
HS 578T breast = system: HS 578T breast
EKVX NSCLC = system: EKVX NSCLC
SNB-19 CNS = system: SNB-19 CNS
OVCAR-4 ovarian = system: OVCAR-4 ovarian
A498 renal = system: A498 renal
HL-60(TB) leukemia = system: HL-60(TB) leukemia
U251 CNS = system: U251 CNS
SF-268 CNS = system: SF-268 CNS
T-47D breast = system: T-47D breast
HOP-92 NSCLC = system: HOP-92 NSCLC

CN(C)CCNc1nc2ccccc2c2c(=O)c3cc(F)ccc3sc12
GI50 (M14 melanoma): 1900 nM
TGI (M14 melanoma): 3.55 µM
GI50 (DU-145 prostate): 1770 nM
TGI (DU-145 prostate): 3.21 µM
GI50 (RPMI-8226 leukemia): 2300 nM
TGI (RPMI-8226 leukemia): 5.18 µM
GI50 (CAKI-1 renal): 1580 nM
TGI (CAKI-1 renal): 2.93 µM
GI50 (NCI/ADR-RES ovarian): 1630 nM
TGI (NCI/ADR-RES ovarian): 3.06 µM
GI50 (HCT-15 colon): 1570 nM
TGI (HCT-15 colon): 3.08 µM
GI50 (SF-539 CNS): 1670 nM
TGI (SF-539 CNS): 3.07 µM
GI50 (COLO 205 colon): 2130 nM
TGI (COLO 205 colon): 4.86 µM
GI50 (HCT-116 colon): 1580 nM
TGI (HCT-116 colon): 3.08 µM
GI50 (NCI-H23 lung): 1790 nM
TGI (NCI-H23 lung): 3.26 µM
GI50 (786-0 renal): 1470 nM
TGI (786-0 renal): 2910 nM
GI50 (MCF7 breast): 1620 nM
TGI (MCF7 breast): 3.22 µM
GI50 (KM12 colon): 1930 nM
TGI (KM12 colon): 3.56 µM
GI50 (UACC-62 melanoma): 1730 nM
TGI (UACC-62 melanoma): 3.18 µM
GI50 (MDA-MB-231 breast): 1470 nM
TGI (MDA-MB-231 breast): 2.88 µM
GI50 (SK-MEL-5 melanoma): 1700 nM
TGI (SK-MEL-5 melanoma): 3.08 µM
GI50 (LOX IMVI melanoma): 1630 nM
TGI (LOX IMVI melanoma): 3.03 µM
GI50 (SK-MEL-2 melanoma): 2050 nM
TGI (SK-MEL-2 melanoma): 4.06 µM
GI50 (HCC-2998 colon): 1680 nM
TGI (HCC-2998 colon): 3.23 µM
GI50 (OVCAR-3 ovarian): 1840 nM
TGI (OVCAR-3 ovarian): 3.33 µM
GI50 (HT29 colon): 1680 nM
TGI (HT29 colon): 3.48 µM
GI50 (HOP-62 NSCLC): 1890 nM
TGI (HOP-62 NSCLC): 3.93 µM
GI50 (IGROV1 ovarian): 1530 nM
TGI (IGROV1 ovarian): 2990 nM
GI50 (UACC-257 melanoma): 2120 nM
TGI (UACC-257 melanoma): 4.16 µM
GI50 (UO-31 renal): 1400 nM
TGI (UO-31 renal): 2730 nM
GI50 (PC-3 prostate): 1700 nM
TGI (PC-3 prostate): 3.37 µM
GI50 (BT-549 breast): 3520 nM
TGI (BT-549 breast): > 100 µM
GI50 (OVCAR-5 ovarian): 1580 nM
TGI (OVCAR-5 ovarian): 2950 nM
GI50 (SN12C renal): 1570 nM
TGI (SN12C renal): 3 µM
GI50 (NCI-H226 lung): 1610 nM
TGI (NCI-H226 lung): 3.14 µM
GI50 (K-562 leukemia): 2000 nM
TGI (K-562 leukemia): 4.84 µM
GI50 (MDA-MB-435): 1660 nM
TGI (MDA-MB-435): 3.06 µM
GI50 (RXF 393 renal): 1450 nM
TGI (RXF 393 renal): 2830 nM
GI50 (SNB-75 CNS): 1450 nM
TGI (SNB-75 CNS): 2800 nM
GI50 (TK-10 renal): 1760 nM
TGI (TK-10 renal): 3.33 µM
GI50 (CCRF-CEM leukemia): 2220 nM
TGI (CCRF-CEM leukemia): 5 µM
GI50 (SR leukemia): 3.27 µM
TGI (SR leukemia): > 100 µM
GI50 (A549 NSCLC): 2100 nM
TGI (A549 NSCLC): 4.83 µM
GI50 (MALME-3M melanoma): 1650 nM
TGI (MALME-3M melanoma): 3.15 µM
GI50 (NCI-H460 lung): 1790 nM
TGI (NCI-H460 lung): 3.42 µM
GI50 (NCI-H522 lung): 1860 nM
TGI (NCI-H522 lung): 3.79 µM
GI50 (SW-620 colon): 1670 nM
TGI (SW-620 colon): 3.23 µM
GI50 (ACHN renal): 1650 nM
TGI (ACHN renal): 3.01 µM
GI50 (SK-MEL-28 melanoma): 1790 nM
TGI (SK-MEL-28 melanoma): 3.23 µM
GI50 (SF-295 CNS): 1760 nM
TGI (SF-295 CNS): 3.22 µM

Cc1cn2c(/C=N/N=C(N)N)c(-c3ccc(Cl)c([N+](=O)[O-])c3)nc2s1
TGI (CAKI-1 renal): > 100 µM
TGI (NCI/ADR-RES ovarian): > 100 µM
TGI (SK-OV-3 ovarian): 3.15 µM
TGI (SF-539 CNS): 3.11 µM
TGI (COLO 205 colon): 1.88 µM
TGI (OVCAR-8 ovarian): > 100 µM
TGI (SK-MEL-2 melanoma): 1.6 µM
TGI (HT29 colon): 2.72 µM
TGI (UACC-257 melanoma): > 100 µM
TGI (UO-31 renal): 3400 nM
TGI (OVCAR-5 ovarian): 2410 nM
TGI (SNB-75 CNS): 2370 nM
TGI (HS 578T breast): > 100 µM
TGI (SW-620 colon): > 100 µM
TGI (EKVX NSCLC): 2100 nM
TGI (SK-MEL-28 melanoma): 3.05 µM

COc1cc2nc(-c3cccs3)nc(Cl)c2cc1OC
TGI (M14 melanoma): > 100 µM
TGI (DU-145 prostate): > 100 µM
TGI (CAKI-1 renal): > 100 µM
TGI (SNB-19 CNS): > 100 µM
TGI (NCI/ADR-RES ovarian): > 100 µM
TGI (OVCAR-4 ovarian): > 100 µM
TGI (SK-OV-3 ovarian): > 100 µM
TGI (HCT-15 colon): > 100 µM
TGI (SF-539 CNS): > 100 µM
TGI (COLO 205 colon): > 100 µM
TGI (A498 renal): > 100000 nM
TGI (HCT-116 colon): > 100 µM
TGI (NCI-H23 lung): > 100 µM
TGI (786-0 renal): > 100000 nM
TGI (MCF7 breast): 76 µM
TGI (KM12 colon): > 100 µM
TGI (UACC-62 melanoma): > 100 µM
TGI (MDA-MB-231 breast): > 100 µM
TGI (OVCAR-8 ovarian): > 100 µM
TGI (SK-MEL-5 melanoma): > 100 µM
TGI (HL-60(TB) leukemia): > 100 µM
TGI (SK-MEL-2 melanoma): > 100 µM
TGI (OVCAR-3 ovarian): > 100 µM
TGI (HT29 colon): > 100 µM
TGI (U251 CNS): > 100 µM
TGI (HOP-62 NSCLC): > 100 µM
TGI (IGROV1 ovarian): > 100000 nM
TGI (UACC-257 melanoma): > 100 µM
TGI (UO-31 renal): > 100000 nM
TGI (PC-3 prostate): > 100 µM
TGI (BT-549 breast): > 100 µM
TGI (OVCAR-5 ovarian): > 100000 nM
TGI (SN12C renal): > 100 µM
TGI (NCI-H226 lung): > 100 µM
TGI (K-562 leukemia): > 100 µM
TGI (MDA-MB-435): > 100 µM
TGI (SNB-75 CNS): > 100000 nM
TGI (SF-268 CNS): > 100 µM
TGI (TK-10 renal): > 100 µM
TGI (HS 578T breast): > 100 µM
TGI (SR leukemia): 34.8 µM
TGI (A549 NSCLC): > 100 µM
TGI (MALME-3M melanoma): > 100 µM
TGI (NCI-H460 lung): > 100 µM
TGI (NCI-H522 lung): > 100 µM
TGI (SW-620 colon): > 100 µM
TGI (ACHN renal): > 100 µM
TGI (EKVX NSCLC): > 100000 nM
TGI (SK-MEL-28 melanoma): > 100 µM
TGI (SF-295 CNS): > 100 µM
TGI (T-47D breast): > 100 µM

COc1ccc2c(c1)c(-c1nc(-c3c[nH]c4ncccc34)cs1)cn2CCCCN1CCCCC1
GI50 (DU-145 prostate): 1730 nM
TGI (DU-145 prostate): 3.22 µM
GI50 (SK-OV-3 ovarian): 1750 nM
TGI (SK-OV-3 ovarian): 3.18 µM
GI50 (A498 renal): 1430 nM
TGI (A498 renal): 2900 nM
GI50 (HOP-92 NSCLC): 1180 nM
TGI (HOP-92 NSCLC): 2480 nM
GI50 (MDA-MB-231 breast): 1610 nM
TGI (MDA-MB-231 breast): 3.08 µM
GI50 (HL-60(TB) leukemia): 1720 nM
TGI (HL-60(TB) leukemia): 3.54 µM
GI50 (SK-MEL-2 melanoma): 1800 nM
TGI (SK-MEL-2 melanoma): 3.54 µM
GI50 (HCC-2998 colon): 1740 nM
TGI (HCC-2998 colon): 3.29 µM
GI50 (OVCAR-3 ovarian): 1760 nM
TGI (OVCAR-3 ovarian): 3.24 µM
GI50 (HOP-62 NSCLC): 1480 nM
TGI (HOP-62 NSCLC): 2.95 µM
GI50 (UACC-257 melanoma): 1800 nM
TGI (UACC-257 melanoma): 3.35 µM
GI50 (UO-31 renal): 1380 nM
TGI (UO-31 renal): 2770 nM
GI50 (PC-3 prostate): 1520 nM
TGI (PC-3 prostate): 2.93 µM
GI50 (BT-549 breast): 1660 nM
TGI (BT-549 breast): 3.13 µM
GI50 (K-562 leukemia): 1610 nM
TGI (K-562 leukemia): 3.49 µM
GI50 (SNB-75 CNS): 1270 nM
TGI (SNB-75 CNS): 2680 nM
GI50 (SF-268 CNS): 1590 nM
TGI (SF-268 CNS): 3.21 µM
GI50 (TK-10 renal): 1510 nM
TGI (TK-10 renal): 2.93 µM
GI50 (CCRF-CEM leukemia): 1830 nM
TGI (CCRF-CEM leukemia): 3.5 µM
GI50 (HS 578T breast): 1660 nM
TGI (HS 578T breast): 4.38 µM
GI50 (NCI-H460 lung): 1810 nM
TGI (NCI-H460 lung): 3.5 µM
GI50 (ACHN renal): 1660 nM
TGI (ACHN renal): 3.04 µM
GI50 (SF-295 CNS): 1600 nM
TGI (SF-295 CNS): 3.02 µM
